The values that follow come from article PMC5982655, “Interaction of the New Monofunctional Anticancer Agent Phenanthriplatin With Transporters for Organic Cations” (Frontiers in Chemistry, 2018).

What is called IC50 is the concentration that gives 50% inhibition. Read a high IC50 as lower potency.

The test system of test [1] is HEK 293 hOCT2 cells. Description: MTT cell viability, HEK 293 hOCT2 cells. In kind it is cell-based, human. The note with it: HEK 293 hOCT2, cimetidine alone (10 or 100 μM), 10 min. The procedure: (§1) A modified 3-(4,5-dimethylthiazol-2-yl)-2,5-diphenyltetrazolium bromide (MTT) assay (Mosmann, [1983]) was used to test the chemosensitivity of cells to phenanthriplatin and, in some experiments, to cisplatin by determining the glycolysis rate via the reduction of the yellow tetrazolium salt MTT to a purple formazan dye, as previously described (Wehe et al., [2014]). Briefly, after growing for 24 h in the incubator, cells expressing or not hOCT2, hMATE1, hMATE2 or Ctr1 were treated for 10 min with platinum derivatives. Control cells were incubated with drug-free complete cell culture medium. Afterwards, the medium was carefully removed and replaced by 200 μL of fresh complete cell culture medium. After incubation for another 24 h, 10 μL of MTT solution containing 5 mg/mL of the dye were added to each well, and the cells were again incubated for 3 h. The medium was then removed and 100 μL of lysis buffer containing 10% (w/v) sodium dodecyl sulfate and 40% (v/v) dimethylformamide was added to each well. The plates were shaken for 10 min to destroy the cell structure and dissolve the blue formazan dye (Furchert et al., [2007]; Wehe et al., [2014]). Finally, the absorbance was measured at 590 nm using an automated microtiter plate reader (Infinite M200; Tecan, Männedorf, Switzerland). The percentage of viable cells in the untreated controls was compared to that for the various treatments. Experiments carried out with DAOY and UW228 cells followed a similar protocol except that these cells were incubated for 24 h with phenanthriplatin.

Test [2] has as its target T1, hMATE2K (Homo sapiens, UniProt Q86VL8).
T1 construct: expressed in transfected cells
On the set-up: method as in Astorga et al., [2012]. The conditions noted are these: ref Astorga et al., [2012]; cited from earlier work.

For test [3], the target named is T2, hMATE1 (Homo sapiens, UniProt Q96FL8).
T2 construct: expressed in transfected cells
T2 sequence (Q96FL8 1-570): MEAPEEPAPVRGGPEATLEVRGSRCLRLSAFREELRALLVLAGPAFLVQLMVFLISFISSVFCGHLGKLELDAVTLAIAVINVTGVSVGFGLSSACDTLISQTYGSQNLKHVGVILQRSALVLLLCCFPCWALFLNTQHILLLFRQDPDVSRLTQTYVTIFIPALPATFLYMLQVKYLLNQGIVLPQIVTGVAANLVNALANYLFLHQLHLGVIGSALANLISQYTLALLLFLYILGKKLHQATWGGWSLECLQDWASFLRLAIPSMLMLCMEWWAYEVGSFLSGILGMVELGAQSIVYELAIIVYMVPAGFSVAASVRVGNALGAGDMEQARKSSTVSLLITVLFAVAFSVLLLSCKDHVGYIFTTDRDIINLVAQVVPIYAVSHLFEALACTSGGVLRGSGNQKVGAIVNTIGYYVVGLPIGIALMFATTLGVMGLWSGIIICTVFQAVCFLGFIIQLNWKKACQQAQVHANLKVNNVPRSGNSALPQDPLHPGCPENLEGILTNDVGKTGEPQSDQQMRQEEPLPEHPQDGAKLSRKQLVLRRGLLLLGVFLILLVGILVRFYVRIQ
On the set-up: method as in Astorga et al., [2012]. The conditions noted are these: ref Astorga et al., [2012]; cited from earlier work.

For test [4], the system named is Ctr1^+/+ MEFs. Kind of test: MTT cell viability, Ctr1+/+ MEFs. In kind it is cell-based, mouse. The note with it: 1 mM, 10 min. The procedure:
as §1

Test [5] deals with Ctr1^−/− MEFs. Kind of test: MTT cell viability, Ctr1-/- MEFs. In kind it is cell-based, mouse. The conditions noted are these: 1 mM, 10 min. Here is the method:
as §1

Test [6] deals with T3, hOCT1 (Homo sapiens, UniProt O15245).
T3 construct: expressed in transfected cells; gift of H. Koepsell
T3 sequence (O15245 1-554): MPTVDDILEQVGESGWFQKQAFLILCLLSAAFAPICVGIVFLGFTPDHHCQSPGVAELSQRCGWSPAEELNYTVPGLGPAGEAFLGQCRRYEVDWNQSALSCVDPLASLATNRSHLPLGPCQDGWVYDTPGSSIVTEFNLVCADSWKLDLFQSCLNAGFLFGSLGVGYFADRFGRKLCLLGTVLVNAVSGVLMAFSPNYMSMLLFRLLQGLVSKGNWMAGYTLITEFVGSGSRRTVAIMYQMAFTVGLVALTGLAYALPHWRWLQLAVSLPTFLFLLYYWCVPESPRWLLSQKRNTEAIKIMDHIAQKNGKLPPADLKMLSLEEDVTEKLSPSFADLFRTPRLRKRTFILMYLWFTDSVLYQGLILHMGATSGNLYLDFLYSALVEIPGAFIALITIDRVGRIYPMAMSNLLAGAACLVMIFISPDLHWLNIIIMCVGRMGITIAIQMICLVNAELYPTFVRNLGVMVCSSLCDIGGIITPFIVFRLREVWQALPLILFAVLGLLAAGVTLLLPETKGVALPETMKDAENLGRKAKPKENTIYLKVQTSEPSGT
Kind of test: Inhibition of ASP+ uptake in HEK 293 cells expressing hOCT1. In kind it is cell-based. The conditions noted are these: HEK 293 hOCT1, 1 μM ASP+. Here is the method: (§2) The interaction of phenanthriplatin with transporters for organic cations (OCT1-3, MATE1, and MATE2K) was investigated by measuring its effects on the uptake of the fluorescent organic cation 4-(4-dimethylamino)styryl-N-methylpyridinium (ASP^+). Microfluorometric measurements of ASP^+ uptake were performed with a fluorescence plate reader (Infinity 200, Tecan, Crailsheim, Germany; excitation at 465 nm, emission at 590 nm) as described previously for cultured HEK 293 cells (Wilde et al., [2009]). Before measurements, the culture medium in the wells of the 96 well microtiter plate containing HEK 293 cells was replaced by a HCO3- -free Ringer-like solution containing (in mM) NaCl 145, K2HPO4 1.6, KH2PO4 0.4, D-glucose 5, MgCl2 1, calcium gluconate 1.3, and pH adjusted to 7.4. Fluorescence was measured dynamically at 37°C in each well before and after ASP^+ addition to HCO3- -free Ringer-like solution, alone or together with increasing phenanthriplatin concentrations, and plotted versus time. ASP^+ (final concentration 1 or 10 μM for experiments with OCTs or MATEs, respectively) was added after the third sampling interval. Emission from the complete area of the well bottom was analyzed four times and averaged for each well. […] Background fluorescence was measured for each plate in wells with identical solutions containing no cells and subtracted from each well containing cells. Experiments were performed with cells from one passage of the same day with controls and test replicates in the same plate.
(§3) Data are presented as mean values ± SEM, with (n) referring to the number of wells. IC50 values defined as the concentration of platinum agent required to inhibit uptake of ASP^+ by 50% and EC50 values used to assess cell viability were obtained by sigmoidal concentration-response curve fitting using GraphPad Prism, Version 5.3 (GraphPad Software, San Diego, USA). […] For multiple comparisons, ANOVA with Bonferroni post-test was used. A P-value < 0.05 was considered statistically significant.

The target of test [7] is T2, hMATE1. Kind of test: Inhibition of ASP+ uptake in HEK 293 cells expressing hMATE1. In kind it is cell-based. The note with it: inhibition of ASP+ uptake, HEK293 hMATE1, Supplementary Figure 1. Here is the method:
as §2, §3

Test [8] addresses T4, hOCT2 (Homo sapiens, UniProt O15244).
T4 construct: expressed in transfected cells; gift of H. Koepsell
T4 sequence (O15244 1-555): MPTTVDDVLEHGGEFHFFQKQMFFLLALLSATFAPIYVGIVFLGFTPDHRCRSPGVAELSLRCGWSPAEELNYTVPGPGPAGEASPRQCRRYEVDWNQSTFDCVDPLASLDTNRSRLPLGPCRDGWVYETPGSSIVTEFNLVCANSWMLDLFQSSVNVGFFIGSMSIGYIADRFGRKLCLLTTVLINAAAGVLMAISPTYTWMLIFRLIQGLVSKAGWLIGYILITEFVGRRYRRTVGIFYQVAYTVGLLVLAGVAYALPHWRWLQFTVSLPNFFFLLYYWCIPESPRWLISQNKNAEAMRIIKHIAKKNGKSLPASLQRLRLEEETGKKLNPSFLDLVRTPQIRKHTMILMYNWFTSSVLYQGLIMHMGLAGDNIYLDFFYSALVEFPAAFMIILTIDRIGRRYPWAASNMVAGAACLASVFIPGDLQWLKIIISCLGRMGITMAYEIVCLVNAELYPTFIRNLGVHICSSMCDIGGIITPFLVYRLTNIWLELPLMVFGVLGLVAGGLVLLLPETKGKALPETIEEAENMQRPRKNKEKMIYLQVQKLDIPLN
Kind of test: Inhibition of ASP+ uptake in HEK 293 cells expressing hOCT2. The note with it: HEK 293 hOCT2, 1 μM ASP+. In kind it is cell-based. Here is the method: as §2, §3

T1 sequence (Q86VL8 1-566 isoform Q86VL8-3): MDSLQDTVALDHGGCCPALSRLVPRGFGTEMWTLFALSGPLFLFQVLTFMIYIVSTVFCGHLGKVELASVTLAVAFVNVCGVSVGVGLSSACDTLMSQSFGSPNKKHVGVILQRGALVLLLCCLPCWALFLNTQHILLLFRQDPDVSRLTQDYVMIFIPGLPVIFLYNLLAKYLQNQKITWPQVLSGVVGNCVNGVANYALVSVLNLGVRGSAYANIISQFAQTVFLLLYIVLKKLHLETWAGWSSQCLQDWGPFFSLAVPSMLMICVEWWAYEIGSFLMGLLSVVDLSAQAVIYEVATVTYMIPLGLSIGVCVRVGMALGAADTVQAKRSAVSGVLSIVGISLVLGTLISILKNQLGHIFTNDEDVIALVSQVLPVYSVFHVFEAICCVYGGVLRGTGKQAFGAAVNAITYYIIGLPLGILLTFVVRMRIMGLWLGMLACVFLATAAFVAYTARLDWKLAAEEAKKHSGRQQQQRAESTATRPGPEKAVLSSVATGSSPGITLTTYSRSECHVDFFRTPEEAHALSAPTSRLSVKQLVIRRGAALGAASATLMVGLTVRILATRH

In the case of `CN/C(=N/CCSCc1nc[nH]c1C)NC#N` [Cimetidine, cimetidine, reference compound], in test [1], the “Cell viability (MTT)” value is “no significant effect on cell viability”.

Turning to `C[n+]1ccc(-c2ccccc2)cc1` [MPP^+, 1-methyl-4-phenylpyridinium], the “Affinity for hMATE2K” value in test [2] was 3.3 µM. Further, the “Affinity for hMATE1” value in test [3] was 4.7 µM.

Turning to `N.N.[Cl][Pt][Cl]` [cisplatin, reference compound], the “Cell viability (MTT)” value in test [4] is given as “toxic to Ctr1^+/+”; in test [5], “no decrease in cell viability”. In addition, the IC50 came to 61 µM in test [6] and 50 µM in test [8]. Also, the “Interaction (affinity) with hMATE1” value in test [7] is on record as “very low affinity”.
